Results reported in patent US10821110B2, “Composite preparation, containing novel 3-(4--(benzyloxy)phenyl)hex-4-inoic acid derivative and another active ingredient, for preventing or treating metabolic diseases” (HYUNDAI PHARM CO., LTD., priority 2014, dated 2020).
Like-named read-outs stand apart in the source and are kept apart here. Values belong to the compound of their own block, whether it stands above or below them.

Experiments:
[1] = biological target: T1, human GPR40 (Homo sapiens, UniProt O14842); assay: Activation of GPR40 protein: intracellular calcium change (Fluo-4, Flexstation 3) in transfected HEK-293 cells; assay type: cell-based; conditions: HEK-293 cells transfected with human GPR40
T1 construct: host or cells: HEK-293
T1 sequence (O14842 whole entry): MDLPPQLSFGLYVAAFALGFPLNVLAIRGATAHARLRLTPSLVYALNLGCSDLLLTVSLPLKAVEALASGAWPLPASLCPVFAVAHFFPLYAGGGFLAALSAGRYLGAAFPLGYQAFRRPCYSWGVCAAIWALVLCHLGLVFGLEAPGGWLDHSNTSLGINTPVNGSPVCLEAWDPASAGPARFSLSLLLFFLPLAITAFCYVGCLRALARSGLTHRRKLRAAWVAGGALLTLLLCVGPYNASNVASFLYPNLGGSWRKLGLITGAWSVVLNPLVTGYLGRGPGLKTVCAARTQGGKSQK
Procedure: The activation of GPR40 protein by a novel 3-(4-(benzyloxy)phenyl)hex-4-ynoic acid derivative of the present invention was evaluated through the change in intracellular calcium concentration due to the activity of GPR40 protein. First, HEK-293 cells were transfected with human GPR40 DNA (Origene, RC218370) by using Fugene HD (Promega, E2311). […] After 24 hours, the cell culture medium was removed, and replaced with Dulbecco's Modified Eagle Medium (DMEM, 50 μl) supplemented with 1% fetal bovine serum (FBS). For the measurement of calcium concentration, 50 μL of Fluo-4 reagent (Invitrogen, F10471) was added to each well and cultured in a 37° C. incubator for 2 hours. […] Two hours after the initiation of the culture, the prepared samples were automatically injected into the cells using Flexstation 3 (Molecular Devices), and then, the change in intracellular calcium concentration was measured using SoftMax®Pro software for 120 seconds. Here, for a non-treated group, dimethylsulfoxide (DMSO) was injected into the cells to measure the change in calcium concentration. The GPR40 protein activity was calculated from the measured calcium concentration result values using equation 1 below, and the GPR40 activity (EC50 value) by the samples was obtained. […] GPR 40 activity=(intracellular calcium concentration increased by the sample)/(intracellular calcium concentration of the non-treated group)×100 [Equation 1]

[2] = system: Male Sprague Dawley rats; assay: Oral glucose tolerance test (OGTT) 1; assay type: in vivo; conditions: Rattus norvegicus, 2 h; SD rats; 10 mg/kg oral; glucose 4 g/kg 30 minutes after; read-out: % AUC (reduction (%) of blood glucose AUC)
Procedure: Male Sprague Dawley rats aged 8-10 weeks old were acclimated for at least 7 days, and then only healthy animals were used for the oral glucose tolerance test (OGTT test). After fasting for 16-18 hours, five rats per group were randomly grouped and orally administered with the compounds prepared in Examples 2, 3, 4, 6, 9, 12, 14, 16, 25, 29, 36, 37, 41, 43, and 44 at a dose of 10 mg/kg each. Here, as for a non-treated group (vehicle), a solution (PEG 400/Tween 80/0.25% CMC, 5%/5%/90%, v/v/v) containing 5% polyethyleneglycol/5% tween 80/0.25% carboxymethylcelluluse (CMC) was orally administered at the same dose. Glucose (4 g/kg) was orally administered at a dose of 5 ml/kg 30 minutes after each sample was administered. Then, the blood glucose was measured by using Accu-chek active strip (Roche diagnostic Co.).

[3] = system: Male Sprague Dawley (SD) rats; assay: OGTT by co-administration with SGLT2 inhibitor-based drug (empagliflozin); assay type: in vivo, rat
Procedure: The experimental results were expressed as mean and standard error (Mean±SE), and the differences between the control and the experimental groups were tested by one-way ANOVA (a Dunnett method) of “GraphPad Prism 4” software (Graphpad co., La Jolla, Calif., USA). Here, p<0.05 was considered statistically significant.

[4] = system: Male Sprague Dawley (SD) rats; assay: Blood GLP-1 concentration increase after oral administration; assay type: in vivo, rat; conditions: Example 9 at 10-100 mg/kg, plasma after 20 minutes, FIG. 2
Procedure: After 20 minutes, about 0.5 ml of whole blood was collected by direct blood collection through cardiac injection, and the collected blood was immediately transferred to a sample tube treated with the dipeptidyl peptidase IV (DPPIV) inhibitor and ethylenediaminetetraacetic acid (EDTA), and placed in a container containing ice. The collected blood was centrifuged at 3600 rpm for 10 minutes to separate the plasma, and the separated plasma was measured for the plasma GLP-1 concentration through the GLP-1 ELISA kit (Millipore, USA).

[5] = system: male diet-induced obesity (DIO) mice; assay: OGTT by co-administration with DPPIV inhibitor (sitagliptin), mouse model; assay type: in vivo; conditions: oral
Procedure: Here, as for a non-treated group, 5% carboxymethyl cellulose (CMC) was orally administered at the same dose. […] Each test sample and 0.5% carboxymethyl cellulase (CMC) were orally administered at 5 ml/kg.

[6] = system: Male Sprague Dawley (SD) rats; assay: OGTT by co-administration with DPPIV inhibitor (linagliptin), SD rat model; assay type: in vivo; conditions: Example 9 3 mg/kg alone
Procedure: The blood glucose was measured by using Accu-chek active strip (Roche diagnostic Co.).

[7] = system: male diet-induced obesity (DIO) mice; assay: OGTT by co-administration with sulfonylurea-based drug (glimepiride); assay type: in vivo, mouse; conditions: oral
Procedure: Here, as for a non-treated group, 5% carboxymethyl cellulose (CMC) was orally administered at the same dose. In addition, 10 mg/kg of glimepiride, which is well known as a sulfonylurea-based drug, was administered alone. […] The saline and test materials were orally administered at 5 ml/kg.

[8] = system: male Zucker diabetic fatty (ZDF) rats; assay: OGTT by co-administration with biguanide-based drug (metformin), type II diabetic rat model; assay type: in vivo
[9] = system: Male Sprague Dawley (SD) rats; assay: OGTT by co-administration with biguanide-based drug (metformin), SD rat model; assay type: in vivo
[10] = system: INS-1 cells (rat insulinoma cell line); assay: Insulin secretion experiment; assay type: cell-based; conditions: 25 mM glucose
Procedure: INS-1 cells (rat insulinoma cell line) were seeded in a 24-well plate at 5×10^5 cells/well, and cultured for 48 hours. […] The amount of insulin secreted in the insulin ELISA kit (Morinaga) was measured using the supernatant of the cells after the experiment was ended (see Table 16 and FIG. 11).

[11] = system: male diet-induced obesity (DIO) mice; assay: OGTT by co-administration with thiazolidinedione (TZD)-based drug; conditions: oral
Procedure: Here, as for a non-treated group, 5% carboxymethyl cellulose (CMC) was orally administered at the same dose. In addition, 10 mg/kg of rosiglitazone and pioglitazone, which are well known as thiazolidinedione (TZD)-based drugs, were administered alone. […] The saline and test materials were orally administered at 5 ml/kg.
After 60 minutes, glucose (4 g/kg) was orally administered at a dose of 5 ml/kg. The blood glucose was measured by using Accu-chek active strip (Roche diagnostic Co.).

[12] = intracellular calcium, read-out: EC50
[13] = values in text, read-out: concentration activating the GPR40 protein by 50% (EC50)

EC50 [1, 12]: > 0.3 µM
SMILES: CC#C[C@@H](CC(=O)O)c1ccc(OCc2ccc(CN3CCN(c4ncc(CCC)cn4)CC3)cc2)cc1 [Example 44, (S)-3-(4-(4-((4-(5-propylpyrimidin-2-yl)piperazin-1-yl)methyl)benzyloxy)phenyl)hex-4-ynoic acid]
inhibition in vivo at 10 mg/kg [2]: 22.8%

EC50 [1, 12]: > 0.3 µM
SMILES: CC#C[C@@H](CC(=O)O)c1ccc(OCc2ccc(CN3CCN(c4nc5ccccc5s4)CC3)cc2)cc1 [Example 43, (S)-3-(4-(4-((4-(benzo[d]thiazol-2-yl)piperazin-1-yl)methyl)benzyloxy)phenyl)hex-4-ynoic acid]
inhibition in vivo at 10 mg/kg [2]: 21.2%

EC50 [1, 12]: < 0.2 µM | EC50 [1, 13]: ≤ 0.2 µM
SMILES: CC#CC(CC(=O)O)c1ccc(OCc2ccc(CN3CC=C(c4ccccc4)CC3)cc2)cc1 (stereo not shown) [Example 14, 3-(4-(4-((4-phenyl-5,6-dihydropyridin-1(2H)-yl)methyl)benzyloxy)phenyl)hex-4-ynoic acid]
inhibition in vivo at 10 mg/kg [2]: 27.7%

EC50 [1, 12]: > 0.3 µM
SMILES: CC#CC(CC(=O)O)c1ccc(OCc2ccc(CN3CCc4cc(OC)ccc4C3)cc2)cc1 (stereo not shown) [Example 16, 3-(4-(4-((6-methoxy-3,4-dihydroisoquinolin-2(1H)-yl)methyl)benzyloxy)phenyl)hex-4-ynoic acid]
inhibition in vivo at 10 mg/kg [2]: 21.1%

EC50 [1, 12]: > 0.3 µM
SMILES: CC#C[C@@H](CC(=O)O)c1ccc(OCc2ccc(CN3CCCc4ccccc43)cc2)cc1 [Example 41, sodium (S)-3-(4-(4-((3,4-dihydroquinolin-1(2H)-yl)methyl)benzyloxy)phenyl)hex-4-ynoate]
inhibition in vivo at 10 mg/kg [2]: 23.7%

EC50 [1, 12]: > 0.3 µM
SMILES: CC#CC(CC(=O)O)c1ccc(OCc2cccc(C3=CCC4(CC3)OCCO4)c2)cc1 [Example 2, L-lysine 3-(4-(3-(1,4-dioxaspiro[4.5]dec-7-en-8-yl)benzyloxy)phenyl)hex-4-ynoate]
inhibition in vivo at 10 mg/kg [2]: 17.2%

SMILES: OC[C@H]1O[C@@H](c2ccc(Cl)c(Cc3ccc(O[C@H]4CCOC4)cc3)c2)[C@H](O)[C@@H](O)[C@@H]1O [Empagliflozin, empagliflozin]
Reduction (%) of blood glucose AUC ([3]; empagliflozin 1 mg/kg alone): 6.5% | Reduction (%) of blood glucose AUC ([3]; empagliflozin 3 mg/kg alone): 9.2% | Reduction (%) of blood glucose AUC ([3]; empagliflozin 10 mg/kg alone): 29.5%

EC50 [1, 12]: < 0.2 µM | EC50 [1, 13]: ≤ 0.2 µM
SMILES: CC#CC(CC(=O)O)c1ccc(OCc2ccc(CN3CCc4ccccc4C3)cc2)cc1 (stereo not shown) [Example 12, 3-(4-(4-((3,4-dihydroisoquinolin-2(1H)-yl)methyl)benzyloxy)phenyl)hex-4-ynoic acid]
inhibition in vivo at 10 mg/kg [2]: 31%

EC50 [1, 12]: > 0.3 µM
SMILES: CC#C[C@@H](CC(=O)O)c1ccc(OCc2ccc(CN3CCN(c4ccc(OCCCS(C)(=O)=O)cc4)CC3)cc2)cc1 [Example 36, (S)-3-(4-(4-((4-(4-(3-(methylsulfonyl)propoxy)phenyl)piperazin-1-yl)methyl)benzyloxy)phenyl)hex-4-ynoic acid]
inhibition in vivo at 10 mg/kg [2]: 22.6%

SMILES: CC#C[C@@H](CC(=O)O)c1ccc(OCc2cccc(C3=CCC4(CC3)OCCO4)c2)cc1 [Example 9, L-lysine (3S)-3-(4-(3-(1,4-dioxaspiro[4.5]dec-7-en-8-yl)benzyloxy)phenyl)hex-4-ynoate]
inhibition in vivo at 10 mg/kg [2]: 24.7% | blood GLP-1 concentration compared with the glucose treated group (Veh.) [4]: increased the blood GLP-1 concentration | Reduction (%) of blood glucose AUC ([5]; Example 9 30 mg/kg alone): 10.1% | Reduction (%) of blood glucose AUC ([5]; Example 9 100 mg/kg alone): 15.4% | Reduction (%) of blood glucose AUC [6]: 14.8% | Reduction (%) of blood glucose AUC ([7]; Example 9 10 mg/kg alone): 9.1% | Reduction (%) of blood glucose AUC ([7]; Example 9 30 mg/kg alone): 11.4% | Reduction (%) of blood glucose AUC ([7]; Example 9 100 mg/kg alone): 12.7% | Reduction (%) of blood glucose AUC ([8]; oral, Example 9 1 mg/kg alone): 34.2% | Reduction (%) of blood glucose AUC ([8]; oral, Example 9 3 mg/kg alone): 40.9% | Reduction (%) of blood glucose AUC ([8]; oral, Example 9 10 mg/kg alone): 37.8% | Reduction (%) of blood glucose AUC ([9]; Example 9 3 mg/kg alone): 14.5% | Reduction (%) of blood glucose AUC ([3]; Example 9 3 mg/kg alone): 14.8% | Insulin ([10]; Example 9 0.01 μM alone): 99 ng/mL | Reduction (%) of blood glucose AUC ([11]; Example 9 10 mg/kg alone): 24.9% | Reduction (%) of blood glucose AUC ([11]; Example 9 30 mg/kg alone): 20.2%

EC50 [1, 12]: > 0.3 µM
SMILES: CC#C[C@@H](CC(=O)O)c1ccc(OCc2ccc(CN3CCc4cc(OC)ccc4C3)cc2)cc1 [Example 25, (S)-3-(4-(4-((6-methoxy-3,4-dihydroisoquinolin-2(1H)-yl)methyl)benzyloxy)phenyl)hex-4-ynoic acid]
inhibition in vivo at 10 mg/kg [2]: 24.6%

SMILES: COc1ccc(Cl)cc1C(=O)NCCc1ccc(S(=O)(=O)NC(=O)NC2CCCCC2)cc1 [Glibenclamide, glibenclamide]
Insulin ([10]; glibenclamide 0.1 μM alone, vehicle 58): 73 ng/mL | Insulin ([10]; glibenclamide 1 μM alone): 72 ng/mL

SMILES: CCc1ccc(CCOc2ccc(CC3SC(=O)NC3=O)cc2)nc1 (stereo not shown) [Pioglitazone, pioglitazone, reference compound]
Reduction (%) of blood glucose AUC ([11]; pioglitazone 10 mg/kg alone): 27.9%

SMILES: CCC1=C(C)CN(C(=O)NCCc2ccc(S(=O)(=O)NC(=O)N[C@H]3CC[C@H](C)CC3)cc2)C1=O [Glimepiride, glimepiride, reference compound]
Reduction (%) of blood glucose AUC ([7]; glimepiride 10 mg/kg alone): 44.6%

SMILES: CN(C)C(=N)N=C(N)N [Metformin, metformin]
Reduction (%) of blood glucose AUC ([8]; metformin 50 mg/kg alone): 21.7% | Reduction (%) of blood glucose AUC ([9]; metformin 10 mg/kg alone): 3.9% | Reduction (%) of blood glucose AUC ([9]; metformin 50 mg/kg alone): 7.3% | Reduction (%) of blood glucose AUC ([9]; metformin 100 mg/kg alone): 10.0%

EC50 [1, 12]: > 0.3 µM
SMILES: CC#CC(CC(=O)O)c1ccc(OCc2cccc(C3=CCC(=O)CC3)c2)cc1 (stereo not shown) [Example 4, 3-(4-(3-(4-oxocyclohex-1-enyl)benzyloxy)phenyl)hex-4-ynoic acid]
inhibition in vivo at 10 mg/kg [2]: 16.2%
